Experimental data reported in patent US20060035925A1, “SUBSTITUTED 4H-CHROMENES AND ANALOGS AS ACTIVATORS OF CASPASES AND INDUCERS OF APOPTOSIS AND THE USE THEREOF” (Cytovia, Inc., priority 1999, published 2006).
Where two headings read alike, the source gives them in different places.

What was measured:
[1] = tested on: Human breast cancer cell line T-47D; assay: Caspase cascade activation assay (N-(Ac-DEVD)-N'-ethoxycarbonyl-R110 fluorogenic substrate) in T-47D cells; assay type: cell-based; conditions: for Caspase activity (Ratio) T-47D: 24 h incubation with compound, ratio of net RFU (T=3 h) of test compound to control
Protocol: (§1) Human breast cancer cell lines T-47D and ZR-75-1 were grown according to media component mixtures designated by American Type Culture Collection +10% FCS (Invitrogen Corporation), in a 5% CO2-95% humidity incubator at 37° C. T-47D and ZR-75-1 cells were maintained at a cell density between 30 and 80% confluency at a cell density of 0.1 to 0.6×10^6 cells/ml. Cells were harvested at 600×g and resuspended at 0.65×10^6 cells/mL into appropriate media +10% FCS. An aliquot of 45 μl of cells was added to a well of a 96-well microtiter plate containing 5 μl of a 10% DMSO in RPMI-1640 media solution containing 0.16 to 10 μM of 2-amino-3-cyano-4-(3-bromo-4,5-dimethoxyphenyl)-4H-indolo[7,6-b]pyran (Example 42) or other test compound (0.016 to 1 μM final). An aliquot of 45 μl of cells was added to a well of a 96-well microtiter plate containing 5 μl of a 10% DMSO in RPMI-1640 media solution without test compound as the control sample. The samples were mixed by agitation and then incubated at 37° C. for 24 h in a 5% CO2-95% humidity incubator. After incubation, the samples were removed from the incubator and 50 μl of a solution containing 20 μM of N-(Ac-DEVD)-N′-ethoxycarbonyl-R110 (SEQ ID NO:1) fluorogenic substrate (Cytovia, Inc.; WO99/18856), 20% sucrose (Sigma), 20 mM DTT (Sigma), 200 mM NaCl (Sigma), 40 mM Na PIPES buffer pH 7.2 (Sigma), and 500 μg/ml lysolecithin (Calbiochem) was added. The samples were mixed by agitation and incubated at room temperature. Using a fluorescent plate reader (Model 1420 Wallac Instruments), an initial reading (T=0) was made approximately 1-2 min after addition of the substrate solution, employing excitation at 485 nm and emission at 530 nm, to determine the background fluorescence of the control sample. After the 3 h incubation, the samples were read for fluorescence as above (T=3 h).
(§2) The Relative Fluorescence Unit values (RFU) were used to calculate the sample readings as follows: RFU(T=3h)−Control RFU(T=0)=Net RFU(T=3h)
(§3) The activity of caspase cascade activation was determined by the ratio of the net RFU value for 2-amino-3-cyano-4-(3-bromo-4,5-dimethoxyphenyl)-4H-indolo[7,6-b]pyran or other test compound to that of control samples. The EC50 (nM) was determined by a sigmoidal dose-response calculation (Prism 2.0, GraphPad Software Inc.).

[2] = tested on: Human breast cancer cell line ZR-75-1; assay: Caspase cascade activation assay (N-(Ac-DEVD)-N'-ethoxycarbonyl-R110 fluorogenic substrate) in ZR-75-1 cells; assay type: cell-based; conditions: for Caspase activity (Ratio) ZR-75-1: 24 h incubation with compound, ratio of net RFU (T=3 h) of test compound to control
Protocol: as §1, §2, §3

[3] = 24 h incubation, sigmoidal dose-response, read-out: Caspase potency EC50 (nM) T-47D
[4] = ZR-75-1 cells, 24 h incubation, sigmoidal dose-response, read-out: Caspase potency EC50 (nM) ZR-75-1
[5] = Homo sapiens, T47D, additional compounds, Table II, read-out: Caspase potency EC50 (nM) T-47D, Table II
[6] = Homo sapiens, ZR-75-1, ZR-75-1 cells, additional compounds, Table II, read-out: Caspase potency EC50 (nM) ZR-75-1, Table II
[7] = ZR-75-1 cells, additional compounds, Table II
[8] = Homo sapiens, T47D, 24 h, 24 h incubation, sigmoidal dose-response, read-out: Caspase potency EC50 (nM) T-47D
[9] = Homo sapiens, ZR-75-1, 24 h, ZR-75-1 cells, 24 h incubation, sigmoidal dose-response, read-out: Caspase potency EC50 (nM) ZR-75-1

Molecule	EC50 [1, 8]	EC50 [2, 9]	Caspase activity (Ratio) T-47D [1]	Caspase activity (Ratio) ZR-75-1 ([2]; ZR-75-1 cells)	also measured
2-Amino-3-cyano-7-methoxy-4-(2,4-dimethoxypyrimidinyl)-4H-chromene [Example 27]	–	–	<2	<2	EC50 [1, 3]: > 10000 nM; EC50 [2, 4]: > 10000 nM
2-Amino-3-ethoxycarboxyl-4-(3-bromo-4,5-dimethoxy-phenyl)-4H-indolo[4,5-b]pyran [Example 72]	–	–	1.2	3.6	EC50 [1, 3]: > 1000 nM; EC50 [2, 4]: 567 nM
2-Amino-4-(3-bromo-4,5-dimethoxyphenyl)-3-cyano-9-methyl-4H-imidazo[4,5-b]chromene [Example 75]	–	–	6.3	3.4	EC50 [1, 3]: 345 nM; EC50 [2, 4]: 146 nM
COc1cc(C2C(C#N)=C(N)Oc3cc(N)ccc32)cc(OC)c1OC (centres unmarked) [2,7-Diamino-3-cyano-4-(3,4,5-trimethoxyphenyl)-4H-chromene]	–	–	–	–	EC50 [1, 5]: 30 nM; Caspase activity (Ratio) T-47D, Table II ([1]; additional compounds, Table II): 4.2; EC50 [2, 6]: 15 nM; Caspase activity (Ratio) ZR-75-1, Table II [2, 7]: 3.5
N#CC1=C(N)Oc2cc(N)ccc2C1c1cccc(I)c1 (centres unmarked) [2,7-Diamino-3-cyano-4-(3-iodophenyl)-4H-chromene]	–	–	–	–	EC50 [1, 5]: 33 nM; Caspase activity (Ratio) T-47D, Table II ([1]; additional compounds, Table II): 4.8; EC50 [2, 6]: 18 nM; Caspase activity (Ratio) ZR-75-1, Table II [2, 7]: 5.1
N#CC1=C(N)Oc2cc(N)ccc2C1c1ccccc1 (centres unmarked) [2,7-Diamino-3-cyano-4-phenyl-4H-chromene]	–	–	–	–	EC50 [1, 5]: 5630 nM; Caspase activity (Ratio) T-47D, Table II ([1]; additional compounds, Table II): 6.3; EC50 [2, 6]: 2880 nM; Caspase activity (Ratio) ZR-75-1, Table II [2, 7]: 8.6
CCC(C)C(=O)Nc1ccc2c(c1)OC(N)=C(C#N)C2c1cc(Br)c(OC)c(OC)c1 (centres unmarked) [2-Amino-3-cyano-7-(2-methylbutanoylamino)-4-(3-bromo-4,5-dimethoxyphenyl)-4H-chromene]	–	–	–	–	Caspase activity (Ratio) T-47D, Table II ([1]; additional compounds, Table II): Inactive; Caspase potency EC50 (nM) T-47D, Table II ([1]; additional compounds, Table II): Inactive; Caspase activity (Ratio) ZR-75-1, Table II [2, 7]: Inactive; Caspase potency EC50 (nM) ZR-75-1, Table II [2, 7]: Inactive
COc1cc(C2C(C#N)=C(N)Oc3cc(O)ccc32)cc(OC)c1OC (centres unmarked) [2-Amino-3-cyano-7-hydroxy-4-(3,4,5-trimethoxyphenyl)-4H-chromene]	–	–	–	–	EC50 [1, 5]: 456 nM; Caspase activity (Ratio) T-47D, Table II ([1]; additional compounds, Table II): 7.3; EC50 [2, 6]: 208 nM; Caspase activity (Ratio) ZR-75-1, Table II [2, 7]: 10.3
COc1cc(C2C(C#N)=C(N)Oc3cc(O)ccc32)cc(Br)c1OC (centres unmarked) [Example 1, 2-Amino-3-cyano-7-hydroxy-4-(3-bromo-4,5-dimethoxyphenyl)-4H-chromene]	153 nM	94 nM	5.1	10.8	–

Second part, led by results:

EC50 [1, 8]	EC50 [2, 9]	Molecule	Caspase activity (Ratio) T-47D [1]	Caspase activity (Ratio) ZR-75-1 ([2]; ZR-75-1 cells)	also measured
72 nM	14 nM	CCNc1ccc2c(c1)OC(N)=C(C#N)C2c1cc(Br)c(OC)c(OC)c1 (centres unmarked) [Example 2A, 2-Amino-3-cyano-7-ethylamino-4-(3-bromo-4,5-dimethoxyphenyl)-4H-chromene]	4.0	4.1	–
> 10000 nM	> 10000 nM	N#CC1=C(N)Oc2cc(O)ccc2C1c1cccc(C#N)c1 (centres unmarked) [Example 2B, 2-Amino-3-cyano-7-hydroxy-4-(3-cyanophenyl)-4H-chromene]	1.2	1.9	–
> 10000 nM	> 10000 nM	COc1cc(C2C(C#N)=C(N)Oc3c2ccc(O)c3O)cc(Br)c1OC (centres unmarked) [Example 2C, 2-Amino-3-cyano-7,8-dihydroxy-4-(3-bromo-4,5-dimethoxyphenyl)-4H-chromene]	1.1	0.9	–
78 nM	50 nM	N#CC1=C(N)Oc2cc(N)ccc2C1c1cc(Cl)cc(Cl)c1 (centres unmarked) [Example 2D, 2-Amino-3-cyano-7-amino-4-(3,5-dichlorophenyl)-4H-chromene]	4.4	4.4	–
39 nM	29 nM	COc1ccc2c(c1)OC(N)=C(C#N)C2c1cc(Cl)cc(Cl)c1 (centres unmarked) [Example 2E, 2-Amino-3-cyano-7-methoxy-4-(3,5-dichlorophenyl)-4H-chromene]	4.1	4.4	–
44 nM	26 nM	N#CC1=C(N)OC2C3=CC=NC3=CC=C2C1c1cc(Cl)cc(Cl)c1 (centres unmarked) [Example 2F, 2-Amino-3-cyano-4-(3,5-dichlorophenyl)-4H-indolo[4,5-b]pyran]	4.7	4.4	–
56 nM	25 nM	N#CC1=C(N)OC2C3=CC=NC3=CC=C2C1c1cccc(Cl)c1 (centres unmarked) [Example 2G, 2-Amino-3-cyano-4-(3-chlorophenyl)-4H-indolo[4,5-b]pyran]	5.6	4.5	–
29 nM	16 nM	COc1cc(C2C(C#N)=C(N)Oc3c2ccc(N)c3C)cc(Br)c1OC (centres unmarked) [Example 2H, 2-Amino-3-cyano-7-amino-8-methyl-4-(3-bromo-4,5-dimethoxyphenyl)-4H-chromene]	5.5	3.9	–
50.4 nM	–	COc1cc(C2C(C#N)=C(N)Oc3c2ccc(O)c3N)cc(Br)c1OC (centres unmarked) [Example 2I, 2-Amino-3-cyano-7-hydroxy-8-amino-4-(3-bromo-4,5-dimethoxyphenyl)-4H-chromene]	6.2	–	–
34 nM	21 nM	COc1ccc2c(c1)OC(N)=C(C#N)C2c1cc(F)cc(F)c1 (centres unmarked) [Example 2J, 2-Amino-3-cyano-7-methoxy-4-(3,5-difluorophenyl)-4H-chromene]	5.0	7.4	–
37 nM	16 nM	N#CC1=C(N)OC2C3=CC=NC3=CC=C2C1c1cc(F)cc(F)c1 (centres unmarked) [Example 2K, 2-Amino-3-cyano-4-(3,5-difluorophenyl)-4H-indolo[4,5-b]pyran]	5.6	6.9	–
63 nM	41 nM	N#CC1=C(N)OC2C3=CC=NC3=CC=C2C1c1cccc(F)c1 (centres unmarked) [Example 2L, 2-Amino-3-cyano-4-(3-fluorophenyl)-4H-indolo[4,5-b]pyran]	4.5	7.4	–
1390 nM	786 nM	N#CC1=C(N)Oc2cc(N)ccc2C1c1cccc(F)c1 (centres unmarked) [Example 2M, 2-Amino-3-cyano-7-amino-4-(3-fluorophenyl)-4H-chromene]	5.8	6.9	–
